Test results taken from patent US20250235462A1, “NOVEL CAPSID ASSEMBLY INHIBITORS” (AM SCIENCES INC, priority 2021, published 2025).
Like-named read-outs stand apart in the source and are kept apart here.

Columns and labels:
[1] = Cell viability assay (EZ-Cytox) in HepAD38 cells; format: cell-based; conditions: human, 65 hours of treatment; for CC50 at 65 h: read-out: Cytotoxicity CC50; for viability at 65 h, 100 µM: read-out: Cytotoxicity % Livability (@100 μM)
Protocol: HepAD38 cells were cultured for 2 days in Dulbecco's Modified Eagle's medium (Welgene, LM001-05) supplemented with 10% FBS without tetracycline. The cells were seeded in 48-well culture plates (1×10^5 cells/well) and treated with each compound at five concentrations (0 μM (0.8% DMSO as a control), 33 μM, 50 μM, 66 μM, and 100 μM). After 65 hours of treatment, viability was measured using EZ-Cytox cell viability assay kit (Daeil Lab Service) according to the manufacturer's instructions. The absorbance was measured at 450 nm using a spectrophotometer (Spark, Tecan). Here, NVR-3-778 (denoted as NVR) was used as a positive control.

intracellular HBV DNA = test: Real-time PCR for intracellular HBV DNA in HepAD38 cells; format: cell-based, hepatitis B virus (HBV); conditions: Hepatitis B virus, HePAD38, 65 h, treated for 65 hours, intracellular HBV DNA by real-time PCR
Protocol: HepAD38 cells were cultured in DMEM medium (Welgene) supplemented with 200 unit/mL penicillin, 200 μg/mL streptomycin, and 10% FBS. During maintenance and passage, the cells were cultured together with 0.4 μg/mL tetracycline. Two days before the treatment with compounds for inducing HBV replication was started, the medium was replaced with a tetracycline-free complete growth medium. […]
HepAD38 cells were treated with a compound for 65 hours and then recovered, and intracellular HBV DNA was extracted therefrom according to the protocol in the DNeasy Blood & Tissue Kit (Qiagen). The primers and probes used to quantify HBV DNA were 5′-[…]-3′, 5′-[…]-3′, and 5′-/56-FAM/TGT CCT GGT/ZEN/[…]/3IABKFQ/-3′. The HBV DNA was amplified by real-time PCR assay using LightCycler 480 (Roche) (J. Virol., 2018, 92(16):e00339-18). All of the processes were confirmed in duplicate.

[2] = molecular target: Protein (capsid assembly) (Hepatitis B virus genotype D subtype ayw, UniProt P03146); test: Protein inhibition (capsid assembly inhibition), Table 1; format: biochemical
Chain of Protein (capsid assembly) (P03146 whole entry): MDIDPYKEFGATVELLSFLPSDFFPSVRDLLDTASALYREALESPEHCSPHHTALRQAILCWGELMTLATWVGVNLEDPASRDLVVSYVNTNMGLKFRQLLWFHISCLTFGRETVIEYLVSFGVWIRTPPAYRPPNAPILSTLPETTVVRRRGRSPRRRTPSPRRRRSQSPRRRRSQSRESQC

[3] = NVR value of the same run in brackets, read-out: Protein EC50
[4] = @30 μM, read-out: Protein % inhibition rate (@30 μM)

SMILES | CC50 at 65 h [1] [nM] | viability at 65 h, 100 µM [1] [%] | IC50 (intracellular HBV DNA) [nM] | EC50 [2, 3] [nM] | inhibition at 30 µM ([2]; read-out: Protein % inhibition rate (@30 μM), @30 μM) [%] | EC50 [2] [nM] | inhibition at 30 µM [2, 4] [%] | Protein % inhibition rate (@30 μM) ([2]; @30 μM) [%]
COc1ccc(N(Cc2nnc(C)n2C(C)C)C(=O)Nc2ccc(F)c(Cl)c2)cc1 [Example 26, 3-(3-Chloro-4-fluorophenyl)-1-((4-isopropyl-5-methyl-4H-1,2,4-triazol-3-yl)methyl)-1-(4-methoxyphenyl)urea] | > 100000 | 91.5 | 184 | 6200 | 2 | – | – | –
Cc1cccc(NC(=O)N(Cc2nnc3n2CCCCC3)c2ccc3c(c2)OCO3)c1 [Example 1, 1-(Benzo[d][1,3]dioxol-5-yl)-1-((6,7,8,9-tetrahydro-5H-[1,2,4]triazolo[4,3-a]azepin-3-yl)methyl)-3-m-tolylurea] | > 100000 | 95 | 20 | – | – | 1300 | 72 | –
COc1ccc(N(Cc2nnc(C(F)F)n2C)C(=O)Nc2ccc(F)c(Cl)c2)cn1 [Example 48, 3-(3-Chloro-4-fluorophenyl)-1-((5-(difluoromethyl)-4-methyl-4H-1,2,4-triazol-3-yl)methyl)-1-(6-methoxypyridin-3-yl)urea] | > 100000 | 102 | > 1100 | – | – | – | – | –
N#Cc1cccc(NC(=O)N(Cc2nnc3n2CCCCC3)c2ccc3c(c2)OCO3)c1 [Example 8, 1-(Benzo[d][1,3]dioxol-5-yl)-3-(3-cyanophenyl)-1-((6,7,8,9-tetrahydro-5H-[1,2,4]triazolo[4,3-a]azepin-3-yl)methyl)urea] | > 100000 | 91.6 | 270 | 1800 | – | – | 83 | –
COc1ccc(N(Cc2nnc(C(F)(F)F)n2CCO)C(=O)Nc2ccc(F)c(Cl)c2)cn1 [Example 50, 3-(3-Chloro-4-fluorophenyl)-1-((4-(2-hydroxyethyl)-5-(trifluoromethyl)-4H-1,2,4-triazol-3-yl)methyl)-1-(6-methoxypyridin-3-yl)urea] | > 100000 | 101 | > 1100 | – | – | – | – | –
O=C(Nc1cccc(Cl)c1)N(Cc1nnc2n1CCCC2)c1ccc2c(c1)OCO2 [Example 41, 1-(Benzo[d][1,3]dioxol-5-yl)-3-(3-chlorophenyl)-1-((5,6,7,8-tetrahydro-[1,2,4]triazolo[4,3-a]pyridin-3-yl)methyl)urea] | > 100000 | 97.1 | 230 | 2900 | – | – | 59 | –
COc1ccc(N(Cc2nnc(C(F)(F)F)n2C)C(=O)Nc2ccc(F)c(Cl)c2)cn1 [Example 49, 3-(3-Chloro-4-fluorophenyl)-1-(6-methoxypyridin-3-yl)-1-((4-methyl-5-(trifluoromethyl)-4H-1,2,4-triazol-3-yl)methyl)urea] | > 100000 | 55.9 | 438 | – | – | – | – | –
CC(C)Oc1ccc(N(Cc2nnc3n2CCCCC3)C(=O)Nc2ccc(F)c(Cl)c2)cc1 [Example 12, 3-(3-Chloro-4-fluorophenyl)-1-(4-isopropoxyphenyl)-1-((6,7,8,9-tetrahydro-5H-[1,2,4]triazolo[4,3-a]azepin-3-yl)methyl)urea] | > 100000 | 93.2 | 110 | 2500 | – | – | 95 | –
COCCn1c(CN(C(=O)Nc2ccc(F)c(Cl)c2)c2ccc(OC)nc2)nnc1C(F)(F)F [Example 52, 3-(3-Chloro-4-fluorophenyl)-1-((4-(2-methoxyethyl)-5-(trifluoromethyl)-4H-1,2,4-triazol-3-yl)methyl)-1-(6-methoxypyridin-3-yl)urea] | > 100000 | 55.4 | > 1100 | – | – | – | – | –
O=C(Nc1ccc(F)c(Cl)c1)N(Cc1nnc2n1CCOCC2)c1ccnc(O)c1 [Example 46, 3-(3-chloro-4-fluorophenyl)-1-(2-hydroxypyridin-4-yl)-1-((5,6,8,9-tetrahydro-[1,2,4]triazolo[4,3-d][1,4]oxazepin-3-yl)methyl)urea] | > 100000 | 90.5 | > 1100 | – | – | – | – | –
CC(c1nnc2n1CCOCC2)N(C(=O)Nc1ccc(F)c(Cl)c1)c1ccc2c(c1)OCO2 (centres unmarked) [Example 33, 1-(Benzo[d][1,3]dioxol-5-yl)-3-(3-chloro-4-fluorophenyl)-1-(1-(5,6,8,9-tetrahydro-[1,2,4]triazolo[4,3-d][1,4]oxazepin-3-yl)ethyl)urea] | > 100000 | 88.3 | 360 | 4300 | – | – | 26 | –
O=C(Nc1ccc(F)c(Cl)c1)N(Cc1nnc2n1CCCCC2)c1ccc(F)c(F)c1 [Example 22, 3-(3-Chloro-4-fluorophenyl)-1-(3,4-difluorophenyl)-1-((6,7,8,9-tetrahydro-5H-[1,2,4]triazolo[4,3-a]azepin-3-yl)methyl)urea] | > 100000 | 92.9 | 400 | 2600 | – | – | 43 | –
COc1ccc(N(C(=O)Nc2ccc(F)c(Cl)c2)C(C)c2nnc3n2CCCCC3)cc1 (centres unmarked) [Example 23, 3-(3-Chloro-4-fluorophenyl)-1-(4-methoxyphenyl)-1-(1-(6,7,8,9-tetrahydro-5H-[1,2,4]triazolo[4,3-a]azepin-3-yl)ethyl)urea] | > 100000 | 95.1 | 320 | 3100 | – | – | 47 | –
COc1ccc(N(Cc2nnc3n2CCCC3)C(=O)Nc2ccc(F)c(Cl)c2)cc1 [Example 43, 3-(3-Chloro-4-fluorophenyl)-1-(4-methoxyphenyl)-1-((5,6,7,8-tetrahydro-[1,2,4]triazolo[4,3-a]pyridin-3-yl)methyl)urea] | > 100000 | 103 | 790 | 3300 | – | – | 96.2 | –
O=C(Nc1ccc(F)c(Cl)c1)N(Cc1nnc2n1CCCCC2)c1ccc(C(F)(F)F)cc1 [Example 13, 3-(3-Chloro-4-fluorophenyl)-1-((6,7,8,9-tetrahydro-5H-[1,2,4]triazolo[4,3-a]azepin-3-yl)methyl)-1-(4-(trifluoromethyl)phenyl)urea] | > 100000 | 106 | 230 | 5000 | – | – | 89 | –
COc1ccc(N(Cc2nnc3n2CCCCC3)C(=O)Nc2ccc(F)c(Cl)c2)cn1 [Example 44, 3-(3-Chloro-4-fluorophenyl)-1-(6-methoxypyridin-3-yl)-1-((6,7,8,9-tetrahydro-5H-[1,2,4]triazolo[4,3-a]azepin-3-yl)methyl)urea] | > 100000 | 103 | 50 | 1400 | – | – | 82 | –
O=C(Nc1ccc(F)c(Cl)c1)N(Cc1nnc2n1CCCCC2)c1ccon1 [Example 36, 3-(3-Chloro-4-fluorophenyl)-1-(isoxazol-3-yl)-1-((6,7,8,9-tetrahydro-5H-[1,2,4]triazolo[4,3-a]azepin-3-yl)methyl)urea] | > 100000 | 90.4 | 400 | 1500 | – | – | 77.6 | –
O=C(Nc1ccc(F)c(Cl)c1)N(Cc1nnc2n1CCOC2)c1ccc2c(c1)OCO2 [Example 42, 1-(Benzo[d][1,3]dioxol-5-yl)-3-(3-chloro-4-fluorophenyl)-1-((6,8-dihydro-5H-[1,2,4]triazolo[3,4-c][1,4]oxazin-3-yl)methyl)urea] | > 100000 | 83.7 | 210 | 6800 | – | – | – | 20
COCCn1c(CN(C(=O)Nc2ccc(F)c(Cl)c2)c2ccc(OC)nc2)nnc1C(F)F [Example 51, 3-(3-Chloro-4-fluorophenyl)-1-((5-(difluoromethyl)-4-(2-methoxyethyl)-4H-1,2,4-triazol-3-yl)methyl)-1-(6-methoxypyridin-3-yl)urea] | > 100000 | 84.2 | > 1100 | – | – | – | – | –
COc1cc(N(Cc2nnc3n2CCOCC3)C(=O)Nc2ccc(F)c(Cl)c2)ccn1 [Example 47, 3-(3-Chloro-4-fluorophenyl)-1-(2-methoxypyridin-4-yl)-1-((5,6,8,9-tetrahydro-[1,2,4]triazolo[4,3-d][1,4]oxazepin-3-yl)methyl)urea] | > 100000 | 81.2 | 92 | – | – | – | – | –
COc1ccc(N(Cc2nnc(C(F)F)n2CCO)C(=O)Nc2ccc(F)c(Cl)c2)cn1 [Example 53, 3-(3-Chloro-4-fluorophenyl)-1-((5-(difluoromethyl)-4-(2-hydroxyethyl)-4H-1,2,4-triazol-3-yl)methyl)-1-(6-methoxypyridin-3-yl)urea] | > 100000 | 99.1 | > 1100 | – | – | – | – | –
